We go through 15 molecules from PubChem BioAssay (NCI).

Holding throughout (assay): NCI-60 cell line screen, 48 h
The test system of test [1] is SN12C renal.
Test [2] concerns SF-295 CNS.
For test [3], the system named is NCI/ADR-RES ovarian.
In test [4] the test system is SK-MEL-5 melanoma.
In test [5] the test system is UACC-62 melanoma.
Test [6] has as its system SK-MEL-28 melanoma.
In test [7] the test system is IGROV1 ovarian.
In test [8] the test system is HOP-92 NSCLC.
Test [9] relates to NCI-H226 lung.
Test [10] has as its system MDA-MB-231 breast.

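96-well plates; 48 h exposure; 5 concentrations. Endpoints by linear interpolation between flanking doses. Not reached: highest tested concentration assigned. The concentration for full growth arrest is given as TGI.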

As to `Cc1ccc(C#CS(=O)(=O)C(F)(F)F)cc1`, the TGI is > 100 µM in test [1]; > 31.6 µM in test [2]; > 100 µM in test [3]; > 100 µM in [4]; > 100 µM in [5]; > 100 µM in test [6]. Moreover, the TGI in test [7], in [8] and in test [9] was > 100 µM throughout.

For `COc1ccc([C@H]2c3cc4c(cc3OC(O)(CO)[C@H]2C(=O)O)OCO4)c(OC)c1` (stereo not given in full) (tested in a mixture with another compound), the TGI in test [1] was > 100 µM; in test [2], > 100 µM; in test [4], > 100 µM; in [5] it was > 100 µM; in [6], 95.8 µM; in test [7] it was > 100 µM. In addition, the TGI in [8] and in test [9] was > 100 µM in each case.

`O=NN1C(c2ccccc2)CCCC1c1ccccc1` (stereo not given): the TGI in [1], in [2], in test [3], in [4], in test [5] and in [6] was > 100 µM each time. In addition, the results for the TGI in test [7], in [8] and in [9] were > 100 µM, > 96.1 µM and > 100 µM, respectively.

For the molecule `CC1(C)CN=CC(C)(OCc2ccccc2)C(=O)NC(C)(C)CN=CC(C)(OCc2ccccc2)C(=O)N1` (stereo not given), the TGI in test [1], in test [2], in test [10], in test [4], in test [5] and in test [6] was > 10 µM each time. For the same molecule, the figures for the TGI in test [7], in test [8] and in [9] were > 10 µM, 0.808 µM and > 10 µM, respectively.

Turning to `Cn1cnc(SC2=C3C(=O)C=C4S[C@H]5C[C@]42c2c(c(O)c4c6c2=[N+]3CCC=6C=N4)N5)c1CC(N)C(=O)O` (stereo not given in full), the TGI is 10.2 µM in [1]; 29.4 µM in [2]; 26.4 µM in [4]; 29.2 µM in [5]; 31.9 µM in test [6]; 30.2 µM in [7]. The TGI was 34.5 µM in test [8] and 36.5 µM in [9].

As for `O=C(c1ccccc1)c1c(C(F)(F)F)n([O-])c2cc(F)c(F)cc2[n+]1=O`, the TGI in test [2] was 5.66 µM; in [3], 1.63 µM; in test [4], 3.33 µM; in test [5] it was 5.08 µM; in test [6], > 100 µM; in [7], 6.79 µM. For the same molecule, the TGI in test [8] is 0.324 µM; in test [9], 5.69 µM.

As for `COc1cc(S(=O)(=O)Nc2ccc(-c3csc(N4C(=O)C(C)SC4c4ccccc4)n3)cc2)ccc1Cl` (stereo not given), the TGI in test [1] is > 100 µM; in [3], > 100 µM; in test [4], > 100 µM; in test [5], 52.8 µM; in test [6], > 100 µM; in [7] it was > 100 µM. The TGI in test [8] and in test [9] was > 100 µM each time.

With `CC(C)C1=C(Cc2ccccc2)C(=O)O/C1=C\c1ccc(O)c(Cl)c1`, the TGI in test [1] was 30.7 µM; in test [2], 29.5 µM; in test [10], 29.9 µM; in test [4] it was 31.2 µM; in [5], 28 µM; in [6], 30.9 µM. For the same molecule, the figures for the TGI in test [7] and in [9] were 30.5 µM and 30.6 µM, respectively.

With `COc1ccc(C2=C(Cl)c3cc(OC)c(OC)cc3C2)cc1OC`, the TGI in [1], in test [2], in [4], in test [5], in test [6] and in [7] was > 100 µM in each case. The TGI in test [8] and in test [9] was > 100 µM each time.

`CCN(CC)C1Oc2cc3c(cc2C(c2cccc(OC)c2O)C1C)OCO3` (stereo not given): the TGI in [1] is 16.4 µM; in test [2], 15.4 µM; in test [10] it was > 49.7 µM; in test [3], 53.8 µM; in test [4], 13.6 µM; in test [5], 28.5 µM. Besides, the TGI is 42.2 µM in test [6], > 56 µM in test [7] and 13.3 µM in test [9].

Consider `COc1ccc(CCCN2c3ccccc3Sc3ccccc32)cc1`, for which the TGI in test [1], in test [2], in test [4], in test [5], in test [6] and in [7] was > 100 µM in each case. For the same molecule, the TGI in test [8] and in [9] was > 100 µM throughout.

In the case of `CCOC(=O)C1=C(c2ccccc2)C12N(Cc1ccccc1)C(=O)C2(c1ccccc1)c1ccccc1` (stereo not given), the TGI in [1], in [2], in test [10], in test [5], in test [6] and in [7] was > 100 µM each time. The TGI in test [8] stood at 87.5 µM; in test [9], 95.4 µM.

As to `Cc1ccc2c(=O)cc(Cc3csc4ccccc34)[nH]c2n1`, the TGI in [1] was > 100 µM; in test [2], 93.8 µM; in test [10] it was > 100 µM; in [3], 52.4 µM; in test [4] it was 32.4 µM; in test [5], > 100 µM. Moreover, the TGI in [6] was > 100 µM; in test [7] it was 30.9 µM; in test [9], 85.8 µM.

In the case of `CCC(=O)N1C(=O)C(CC)(CC)C(=O)N1C(=O)CC`, the TGI in test [1], in test [2], in test [10], in test [3], in [4] and in test [5] was > 100 µM throughout. Moreover, the TGI in [6], in test [7] and in test [9] was > 100 µM throughout.

`O=S1(=O)OCCCOS(=O)(=O)C1(Br)Br`: the TGI in [1], in test [2], in test [3], in [4], in [5] and in test [6] was > 100 µM each time. Besides, the TGI in test [9] is > 100 µM.
